US9005577B2, “Substrate based PET imaging agents” (Siemens Medical Solutions USA, Inc., priority 2008, dated 2015)
Square brackets hold non-standard residues; d marks the D form. Peptide text beside a SMILES is read from it. * marks the point of attachment. PEG4 = NCCOCCOCCOCCOCCC(=O)O; X1 = O=C(Cn1cc(CCCF)nn1)*

Assays:
Format in all cases: cell-based, human
[1] = tested on: U87; assay: Cold [19F] standard compound uptake in cells treated with apoptotic inducer, LC/MS (U87); conditions: cold standard compound 10 μM, 2 h, 1 mM 5FU for 2 days, % uptake normalized per mg protein extract
Protocol: (§1) When cells grown in 6-well plates reached 80% confluence, the growth medium was replaced with 2 ml of fresh medium containing 1 mM of 5FU. After two days of apoptotic induction, the standard compound was added into the cultures (control and 5FU treated) at a final concentration of 10 μM. The cells were cultured in the incubator for 2 hours for compound uptake. Then, (in the case of experiments involving the use of caspase-3 inhibitors as blockers, the inhibitor was added to the cells 1 hour early before the addition of standard compound). 100 μl of cell culture medium for each sample was collected, and the cells were harvested by centrifugation. Cell pellets were washed twice with 1×PBS, and lysed in 100 μl of lysis buffer. Both cell lysate and medium were boiled for 5 minutes to denature proteins, cooled down on ice, then 100 μl of chloroform/methanol (50/50 ratio) were added. After vortexing and extraction, the samples were centrifuged in Eppendorf tubes in a micro centrifuge at 13000 rpm for 15 minutes at 4 C. 50 μl of the supernatant was transferred to an HPLC vial. The amounts of compound (or product of caspase-3 cleavage) inside the cells and in the medium were measured by LC/MS. The % uptake=total amount of cell uptake/total amount of compound X 100%. The % uptake was normalized by the amount of cellular protein extract (mg): % Uptake/mg protein extracts.

[2] = tested on: A498; assay: Cold [19F] standard compound uptake in cells treated with apoptotic inducer, LC/MS (A498); conditions: cold standard compound 10 μM, 2 h, 1 mM 5FU for 2 days, % uptake normalized per mg protein extract
Protocol: as §1

[3] = tested on: HT29; assay: Cold [19F] standard compound uptake in cells treated with apoptotic inducer, LC/MS (HT29); conditions: cold standard compound 10 μM, 2 h, 1 mM 5FU for 2 days, % uptake normalized per mg protein extract
Protocol: as §1

[4] = tested on: H2122; assay: Cold [19F] standard compound uptake in cells treated with apoptotic inducer, LC/MS (H2122); conditions: cold standard compound 10 μM, 2 h, 1 mM 5FU for 2 days, % uptake normalized per mg protein extract
Protocol: as §1

[5] = tested on: U87; assay: [18F]-tracer compound uptake in cancer cell lines treated with apoptotic inducer 5FU (U87); conditions: [18F]-tracer 10 μCi/well, 2 h incubation, 1 mM 5FU for 2 days; % uptake normalized per mg protein extract
Protocol: (§2) Cells grown overnight and having reached about 80% confluence in 6-well plates were exposed to 1 mM of apoptotic inducer 5FU for 2 days in a cell culture incubator. The [18F]-labeled tracer was added into each well (triplicates for control and 5FU treated) at 10 μCi/well. (in case of experiments involving the use of caspase-3 inhibitors as blockers, the inhibitor was added to the cells 1 hour before the addition of the [18F]-tracer). The cells were then incubated for two hours. Cells were collected by scrape and centrifugation. Cell pellets were washed twice with 1λ PBS. The amount of tracer inside the cells and in the medium was measured by y-counter. The % Uptake=total CPM inside cells/total tracer CPM×100%. The % Uptake was normalized by the amount of cellular protein extract (mg): % uptake/mg protein extracts.

[6] = tested on: A498; assay: [18F]-tracer compound uptake in cancer cell lines treated with apoptotic inducer 5FU (A498); conditions: [18F]-tracer 10 μCi/well, 2 h incubation, 1 mM 5FU for 2 days; % uptake normalized per mg protein extract
Protocol: as §2

[7] = tested on: HT29; assay: [18F]-tracer compound uptake in cancer cell lines treated with apoptotic inducer 5FU (HT29); conditions: [18F]-tracer 10 μCi/well, 2 h incubation, 1 mM 5FU for 2 days; % uptake normalized per mg protein extract
Protocol: as §2

Row | Structure (SMILES) | percent uptake U87 [1] [%] | percent uptake A498 [2] [%] | percent uptake HT29 [3] [%] | percent uptake H2122 [4] [%] | percent uptake U87 [5] [%] | percent uptake A498 [6] [%] | percent uptake HT29 [7] [%]
1 | CC(C)[C@H](NC(=O)[C@H](CCC(=O)O)NC(=O)[C@H](CC(=O)O)NC(=O)Cn1cc(CCCF)nn1)C(=O)N[C@@H](CC(=O)O)C(=O)N[C@@H](C)C(=O)NCCOCCOCCOCCOCCC(=O)O [Compound 21] (X1-DEVDA[PEG4]-OH) | 2.0 | 2.1 | 1.1 | 1.3 | – | – | –
2 | CC(C)[C@H](NC(=O)[C@H](CCC(=O)O)NC(=O)[C@H](CC(=O)O)NC(=O)Cn1cc(CCCF)nn1)C(=O)N[C@@H](CC(=O)O)C(=O)NCC(=O)N[C@@H](CCCCN)C(=O)N[C@@H](CCCCN)C(=O)N[C@@H](CCCCN)C(=O)N[C@@H](CCCCN)C(N)=O [Compound 27] (X1-DEVDGKKKK-NH2) | 2.5 | 4.5 | 1.7 | 2.0 | – | – | –
3 | CC(C)[C@H](NC(=O)[C@H](CCC(=O)O)NC(=O)[C@H](CC(=O)O)NC(=O)Cn1cc(CCC[18F])nn1)C(=O)N[C@@H](CC(=O)O)C(=O)N[C@@H](C)C(=O)NCCOCCOCCOCCOCCC(=O)O [^18F-21] | – | – | – | – | 2.1 | 1.8 | 2.1
4 | CC(C)[C@H](NC(=O)[C@H](CCC(=O)O)NC(=O)[C@H](CC(=O)O)NC(=O)C1OC(CNC(=O)Cn2cc(CCC[18F])nn2)C(O)C(O)C1O)C(=O)N[C@@H](CC(=O)O)C(=O)NCC(N)=O (stereo partly drawn) [^18F-49] | – | – | – | – | – | 1.5 | –
5 | CC(C)[C@H](NC(=O)[C@H](CCC(=O)O)NC(=O)[C@H](CC(=O)O)NC(=O)C1OC(CNC(=O)Cn2cc(CCC[18F])nn2)C(O)C(O)C1O)C(=O)N[C@@H](CC(=O)O)C(=O)N[C@@H](C)C(=O)NCCOCCOCCOCCOCCC(=O)O (stereo partly drawn) [^18F-56] | – | – | – | – | 2.1 | 2.1 | 1.9
